The nature of the series: gradient 5% acetonitrile 3 min, to 50% in 2 min, to 85% in 15 min, held 3 min, 100 µL/min. The following applies: column: Zorbax Extend-C18 2.1 x 50 mm; eluents: water / acetonitrile, 0.1% formic acid. The method, boiled down: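 Mixtures of ~100 pure standards were chromatographed on a Zorbax Extend-C18 column (2.1 × 50 mm, 1.8 μm) at 100 μL/min using water and acetonitrile, each with 0.1% formic acid. Detection used a quadrupole time-of-flight mass spectrometer in positive and negative ionization mode, and data collection spanned 3 months. Retention time was obtained from adduct peaks picked computationally and each checked manually.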
As to `Cc1ccc(SCC(=O)Nc2nc(-c3ccccc3)cs2)cc1`, the RP-LC retention time came to 1100 s.
Under `CCc1ccc(CN2C(=O)c3ccccc3C2C(=O)NCC2CCCO2)cc1` (stereo not given) stands 830 s; under `Cc1nc(-c2csc(S(=O)(=O)N3CCCC(C(=O)Nc4ccc(C(C)C)cc4)C3)c2)no1` (stereo not given), 1090 s.
In turn, `CCOC(=O)c1c(C)[nH]c(CCC(=O)NCc2ccc3c(c2)OCO3)c1C` displayed an RP-LC retention time of 738 s.
Under `Cc1ccc(S(=O)(=O)N2C[C@H](c3nc(-c4cccnc4)no3)[C@@H](C)C2)cc1` stands 939 s; under `Cc1ccc(-n2c(=O)c3c(cc(C)n3C)n(CC(=O)Nc3cc(C)ccc3C)c2=O)cc1`, 906 s; under `Cc1ccccc1Cn1cc(-c2ccncc2)cc1C(=O)NC1CC1`, 648 s.
Under `CCOC(=O)c1c(C)[nH]c(CCC(=O)NCCc2c[nH]c3ccc(OC)cc23)c1C` stands 837 s; under `CCn1c(=O)c(C(=O)N2CCN(c3ccccn3)CC2)nc2cc(C)c(C)cc21`, 625 s; under `Cc1cc(C)n(-c2ccnc(N3CCC(C(=O)NC4CCCC4)CC3)n2)n1`, 786 s.
`COc1ccccc1CCNC(=O)CSc1nc(=O)n(Cc2ccco2)c2c1CCC2` gave an RP-LC retention time of 739 s.
As to `COc1ccc(-c2cc(C(=O)N3CCC(NC(=O)C4CCCC4)CC3)[nH]n2)cc1`, the RP-LC retention time is 713 s.
In turn, `Cc1ccc(NC(=O)Cn2c(=O)cc(-c3nc(C)no3)c3ccccc32)c(C)c1` yielded an RP-LC retention time of 972 s.
For `CNC(=O)[C@@H]1C[C@@H](O)CN1C1CCN(C(=O)c2cc(C)oc2C)CC1`, the RP-LC retention time came out at 613 s.
Under `CC(C)NC(=O)c1ccc(OCC2CCN(C(=O)c3c(F)cccc3Cl)CC2)cc1` stands 888 s; under `CN1c2ccc(Cl)cc2C(=O)NC12CCN(C(=O)NCc1ccc(F)cc1)CC2`, 785 s.
The same measure for `Cn1cc(-c2nc(C(=O)N3CCN(c4ccccc4)CC3)cs2)c2cccnc21`: 911 s; for `Cc1ccnc(Nc2nc(-c3cc(C)ccc3C)cs2)c1`: 882 s.
On to `CC(C)(C)OC(=O)N1CCN(c2ncc(S(=O)(=O)c3ccc(Cl)cc3)c(N)n2)CC1`, for which the RP-LC retention time is 1060 s.
Under `O=C(O)CSc1nnc(Br)n1-c1ccc(C2CC2)c2ccccc12` stands 949 s; under `CC1=C(c2ccc(F)cc2)S(=O)(=O)N=C1N1CCCN(C(=O)c2cccc(F)c2)CC1`, 835 s; under `CCCC(=O)NC1(c2nc(C(C)C)no2)CCCCC1`, 850 s.
The same measure for `COc1ccc(-c2cc(NCCc3ccc(OC)c(OC)c3)ncn2)cc1`: 563 s.
The same measure for `COc1ccc(CCC(=O)N2CCC[C@@H]2C(=O)NCCc2csc(C)n2)cc1`: 667 s.
Regarding `CSc1cccc(NC(=O)C2CCN(C(=O)c3cc(-c4ccncc4)n[nH]3)CC2)c1`, the RP-LC retention time worked out at 637 s.
Under `Cc1ccc(C(=O)NCCc2nc3cccnc3n2CC(C)C)cc1` stands 716 s; under `Cc1cc(-n2c(C)nc3ccccc3c2=O)ccc1NC(=O)Cc1cccs1`, 769 s; under `CCCCOC(=O)c1ccc(Nc2ncnc(N)c2[N+](=O)[O-])cc1`, 930 s.
Under `COc1ccc(S(=O)(=O)Nc2cc(-c3cn4ccc(C)cc4n3)ccc2C)cc1C` stands 687 s.
`O=C(NC1(c2nc(-c3ccccc3)no2)CCCCC1)c1cccc(F)c1`: the RP-LC retention time turned out to be 1180 s.
Under `CS(=O)(=O)N1CCCC(c2nnc(-c3ccccc3F)s2)C1` (stereo not given) stands 757 s; under `Fc1ccccc1-c1nc2ccc(Cl)cn2c1Nc1ccc(Cl)cc1`, 909 s.
The compound `COc1ccc(Cl)cc1NC(=O)c1cn(C)c2ncccc12` yielded an RP-LC retention time of 955 s.
The same measure for `c1ccc(-c2csc(Nc3cccnc3)n2)cc1`: 674 s; for `COC(=O)c1ccccc1Nc1c(-c2ccccc2)nc2cnccn12`: 962 s; for `CCc1nc(OCC(=O)Nc2cc(OC)cc(OC)c2)c2ccccc2n1`: 720 s.
`Cc1ccc2ncn(C3CCN(C(=O)Nc4ccc(F)cc4)CC3)c(=O)c2c1` had an RP-LC retention time of 765 s.
For the compound `c1cn(-c2ccc(-c3noc(-c4ccc5c(c4)OCO5)n3)cn2)cn1`, the RP-LC retention time came out at 853 s.
`CCOc1ccc(CCNC(=O)c2c(C)oc3nc(C)nc(N4CCCC4)c23)cc1` displayed an RP-LC retention time of 697 s.
The same measure for `CCS(=O)(=O)c1ccc2c(c1)N(Cc1nc(-c3cccc(C)c3)no1)C(=O)CO2`: 926 s.
Under `COc1ccc(-c2nc3cc(C)ccn3c2NC(=O)c2cc(OC)c(OC)c(OC)c2)cc1` stands 664 s; under `Cc1nc(-c2cn(C(C)C)c3ncccc23)sc1C(=O)NCC(C)C`, 975 s; under `O=C(COc1cc(O)c2c(=O)c3ccccc3oc2c1)OCc1ccccc1`, 1220 s.
`COc1ccc(-n2c(=O)n(C)c(=O)c3cc(C(=O)NCc4ccncc4)cnc32)cc1` showed an RP-LC retention time of 596 s.
The same measure for `Cc1ccc(S(=O)(=O)N2CCCC2)cc1-c1nnc(-c2ccc(Cl)cc2)o1`: 1130 s; for `Cc1ccccc1-c1ccc(N2CCN(C(=O)NC3CCCCC3)CC2)nn1`: 631 s.
Under `CCn1ccc2ccc(CCC(=O)N3CCN(c4ccccc4)CC3)cc21` stands 1030 s; under `Cc1c(C(=O)N2CCOCC2)cnn1-c1cc(-c2nc(C(C)(C)C)no2)ccn1`, 931 s.
Under `Cc1ccccc1Oc1nccnc1N1CCCC(C(=O)NCc2ccc(Br)cc2)C1` (stereo not given) stands 960 s; under `CCC(C(=O)NCc1cccc(OC)c1OC)n1sc2ccccc2c1=O` (stereo not given), 988 s; under `Cc1ccccc1Oc1nccn2c(=O)n(CC(=O)NCc3ccccc3)nc12`, 797 s.
Consider `Cc1cnc(-c2ccccc2)n1CCNS(=O)(=O)Cc1ccccc1F`, for which the RP-LC retention time was 651 s.
Under `O=C(NC1CC1)c1ccccc1OC1CN(Cc2ccsc2)C1` stands 600 s; under `Cc1cc2cc3n(c2nn1)N=C(Cl)CC3`, 610 s.
Under `COc1cccc(CNC(=O)N2CCCC(Cn3cnc4cccnc43)C2)c1` (stereo not given) stands 654 s; under `Cc1cc(C)c2[nH]c3c(c(=O)c2c1)CN(CC(=O)NCc1ccc(F)cc1)CC3`, 620 s; under `Cc1ccc(-c2coc(-c3ccc(NC(=O)NCc4ccco4)cc3)n2)c(C)c1`, 1110 s.
Under `COc1ccc(-c2cn3cccnc3n2)cc1NC(=O)c1cccc(Br)c1` stands 748 s; under `COc1ccc(-c2cn3ccn(-c4ccc(OC)cc4)c(=O)c3n2)cc1`, 768 s.
In turn, `CC(O)(CCc1ccccc1)CNC(=O)c1ccc(F)cc1` (stereo not given) gave an RP-LC retention time of 758 s.
Turning to `Cc1ccc(NC(=O)N2CCC(N3CCN(Cc4ccccc4)C3=O)CC2)cc1C`, the RP-LC retention time was found to be 843 s.
For the compound `CS(=O)(=O)N1CCC(OC2CCN(C(=O)NCc3ccc(F)cc3)CC2)CC1`, the RP-LC retention time came out at 730 s.
The same measure for `Cc1ccc(=O)n(CC(=O)N2CCOCC2)n1`: 514 s.
The same measure for `CCOC(=O)c1c(C)c(CCC(=O)NCc2ccc3c(c2)OCO3)n(C)c1C`: 836 s; for `COc1cccc(C(=O)NCCCS(=O)(=O)N2CCN(c3ccccc3)CC2)c1OC`: 810 s.
Under `Cc1cc(=O)n(CC(=O)Nc2ccccc2F)c(N2CCOCC2)n1` stands 643 s; under `CC1CC(C)CN(S(=O)(=O)c2cccc(-c3cn4cc(Cl)ccc4n3)c2)C1` (stereo not given), 1090 s.
On to `CCOC(=O)Cc1sc(Nc2nc(C)cc(C)n2)nc1-c1ccccc1`, for which the RP-LC retention time came to 989 s.
The same measure for `O=C(C1=CCN(Cc2ccccc2)CC1)N1CCN(c2cccc(Cl)c2)CC1`: 707 s.
Under `Cc1ccc(-c2noc(C3CCCN3S(=O)(=O)c3ccc4c(c3)CCCC4)n2)cc1` (stereo not given) stands 1350 s.
Under `Cc1ccc(C)c(CNC(=O)c2ccc(NC(=O)C3CC3)cc2N2CCOCC2)c1` stands 856 s.
`O=C(c1cn2c(n1)COCC2)N1CCN(c2cccc(Cl)c2)CC1` yielded an RP-LC retention time of 708 s.
The same measure for `O=C1C2N=NN(c3cccc(F)c3)C2C(=O)N1c1ccccc1` (stereo not given): 925 s.
As for `Cc1nc(-c2ccc3c(c2)CCN3C(=O)c2n[nH]c3ccccc23)cs1`, the RP-LC retention time is 959 s.
The same measure for `CCOC(=O)c1oc2ccc(S(=O)(=O)N3CC4CN(C)CC(C3)O4)cc2c1C`: 649 s; for `Cc1nn(-c2ccccc2)c2c1-c1sc(C(=O)N3CCN(c4ccccn4)CC3)cc1CC2`: 671 s; for `Cn1cc(-c2cc3n(n2)CCCN3C(=O)CCC(=O)NCc2ccccn2)c2ccccc21`: 629 s.
The same measure for `c1cc(-c2noc(COC3CCCN(Cc4ccoc4)C3)n2)ccn1` (stereo not given): 570 s.
Under `CCC(=O)N1CCc2cc(-c3ccc(C(=O)NCCc4c(C)noc4C)cc3)ccc21` stands 750 s.
`Cc1nc([C@@H]2CN(C(=O)c3cccs3)C[C@H]2C(N)=O)n[nH]1` came in with an RP-LC retention time of 562 s.

The values are drawn from the METLIN SMRT retention time set (Domingo-Almenara et al. 2019).
